One block for each compound: values may come before it.
Assays:
[1] = tested on: Akt substrates GSK3α/β, TSC2, and FoxO1/O3a in L6 myotubes; experiment: Akt substrate phosphorylation in L6 myotubes (Western blot); type: cell-based; conditions: for phosphorylation of Akt and its substrates: insulin
[2] = tested on: Akt phosphorylation in SIN1−/− MEFs; experiment: Akt phosphorylation in primary SIN1−/− MEFs (Western blot); type: cell-based, mouse; conditions: insulin, PIK-90 625 nM, BX-795 10 μM
[3] = tested on: S6K, S6 and 4EBP1 phosphorylation in L6 myotubes; experiment: mTORC1 substrate phosphorylation in L6 myotubes (Western blot); conditions: Figure S3
[4] = target: PKCβI (Homo sapiens, UniProt P05771); experiment: biochemical
[5] = target: PKC-beta (Homo sapiens, UniProt P05771); conditions: in vitro, purified protein
[6] = target: PKCβII (Homo sapiens, UniProt P05771); experiment: biochemical
[7] = target: T1, PDK1 (Homo sapiens, UniProt O15530); experiment: biochemical
T1 sequence (O15530 1-556): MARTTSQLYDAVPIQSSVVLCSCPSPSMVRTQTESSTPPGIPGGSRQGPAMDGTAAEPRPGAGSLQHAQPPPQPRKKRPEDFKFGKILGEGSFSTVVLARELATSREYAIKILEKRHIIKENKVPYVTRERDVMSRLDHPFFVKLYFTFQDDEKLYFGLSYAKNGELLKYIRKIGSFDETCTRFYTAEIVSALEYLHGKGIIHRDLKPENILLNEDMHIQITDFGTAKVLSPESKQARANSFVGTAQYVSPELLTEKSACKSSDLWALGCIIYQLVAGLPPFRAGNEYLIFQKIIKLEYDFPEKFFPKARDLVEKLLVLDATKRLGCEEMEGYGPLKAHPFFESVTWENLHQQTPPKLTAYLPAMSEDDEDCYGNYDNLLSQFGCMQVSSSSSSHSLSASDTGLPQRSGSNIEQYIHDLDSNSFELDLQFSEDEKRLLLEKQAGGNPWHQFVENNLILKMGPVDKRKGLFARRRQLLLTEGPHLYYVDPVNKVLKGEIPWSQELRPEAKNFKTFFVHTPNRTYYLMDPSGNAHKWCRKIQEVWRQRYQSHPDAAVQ

[8] = tested on: new protein synthesis in primary MEFs; experiment: 35S labeling of new protein synthesis; type: cell-based, mouse; conditions: overnight
Description: Primary MEFs grown to 70% confluence in six-well plates were incubated overnight in either 10% Serum (Steady State), kinase inhibitors in 10% serum, or 0.1% serum (starved). Cells were then washed once with DMEM lacking cysteine and methionine (DMEM-noS), and the medium was replaced with DMEM-noS including dialyzed serum and kinase inhibitors as indicated. After incubation for 1 h, 50 μCi of Expre^35S^35S (NEN) was added to each well and the cells were labeled for 4 h. Cells were washed once with ice-cold PBS, and lysed as described above for Western blotting. Following separation by SDS-PAGE, and transfer to nitrocellulose, ^35S-labeled proteins were visualized by autoradiography with film. For quantitation, the membrane was exposed to a phosphorimager screen and the resulting image was quantified in ImageJ. Differences in ^35S incorporation were analyzed for statistical significance by one-way ANOVA with Tukey's post test using the Prism software package.

[9] = tested on: Akt, S6 and 4EBP1 phosphorylation in fat, skeletal muscle, and liver; experiment: In vivo drug treatment and Western blotting of insulin signaling; design: species or system C57BL/6 mice; conditions: mice; for S6 phosphorylation, all tissues examined / phosphorylation of 4EBP1 on T36/45 and S65, all tissues examined: rapamycin 5 mg/kg or PP242 20 mg/kg IP
Description: Drugs were prepared in 100 μl of vehicle containing 20% DMSO, 40% PEG-400, and 40% saline. Six-wk-old male C57BL/6 mice were fasted overnight prior to drug treatment. […] 15 min after the insulin injection, the mice were killed by CO2 asphyxiation followed by cervical dislocation. Tissues were harvested and frozen on liquid nitrogen in 200 μl of cap lysis buffer. The frozen tissue was thawed on ice, manually disrupted with a mortar and pestle, and then further processed with a micro tissue-homogenizer (Fisher PowerGen 125 with Omni-Tip probe). Protein concentration of the cleared lysate was measured by Bradford assay and 5–10 μg of protein was analyzed by Western blot as described above.

[10] = tested on: pT308 of S473A Akt in HEK293 cells; type: cell-based; conditions: HEK293, insulin, 2.5 μM PP242
[11] = tested on: cap-dependent and IRES-dependent translation in primary MEFs; experiment: Bicistronic reporter assay; type: cell-based, mouse; conditions: overnight, 10% serum
[12] = tested on: SIN1−/− MEFs; experiment: Cell proliferation assay (resazurin), SIN1−/− MEFs; conditions: compared with PP242
[13] = tested on: Akt phosphorylation in wild-type MEFs; experiment: Akt phosphorylation in primary wild-type MEFs (Western blot); type: cell-based, mouse; conditions: long-term rapamycin (100 nM, 24 h)
[14] = tested on: primary wild-type MEFs; experiment: Cell proliferation assay (resazurin), wild-type MEFs; type: cell-based, mouse; conditions: cultured 3 d, resazurin fluorescence
[15] = tested on: 4EBP1 bound to eIF4E in L6 myotube lysates; experiment: Cap pull-down assay (m7GTP beads); type: cell-based

Sequence of PKC-beta (P05771 2-621 limits assumed): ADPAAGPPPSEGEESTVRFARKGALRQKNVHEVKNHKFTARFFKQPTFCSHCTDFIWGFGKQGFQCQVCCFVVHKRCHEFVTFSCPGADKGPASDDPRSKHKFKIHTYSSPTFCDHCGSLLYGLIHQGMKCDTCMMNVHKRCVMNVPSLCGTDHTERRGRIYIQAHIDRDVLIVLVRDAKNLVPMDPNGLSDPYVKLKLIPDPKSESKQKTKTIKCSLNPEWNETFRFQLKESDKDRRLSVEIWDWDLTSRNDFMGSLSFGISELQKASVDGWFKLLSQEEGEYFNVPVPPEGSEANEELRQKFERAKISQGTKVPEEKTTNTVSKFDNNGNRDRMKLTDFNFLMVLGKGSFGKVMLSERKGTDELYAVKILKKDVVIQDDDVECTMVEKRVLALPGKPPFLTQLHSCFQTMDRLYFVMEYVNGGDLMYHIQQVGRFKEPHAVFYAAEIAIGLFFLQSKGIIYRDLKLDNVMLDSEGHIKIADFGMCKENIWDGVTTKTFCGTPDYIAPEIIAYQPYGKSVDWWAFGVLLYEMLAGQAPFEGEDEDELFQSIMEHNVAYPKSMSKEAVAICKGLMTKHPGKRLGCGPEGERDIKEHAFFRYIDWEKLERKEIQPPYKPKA
Sequence of PKCβI (P05771 whole entry): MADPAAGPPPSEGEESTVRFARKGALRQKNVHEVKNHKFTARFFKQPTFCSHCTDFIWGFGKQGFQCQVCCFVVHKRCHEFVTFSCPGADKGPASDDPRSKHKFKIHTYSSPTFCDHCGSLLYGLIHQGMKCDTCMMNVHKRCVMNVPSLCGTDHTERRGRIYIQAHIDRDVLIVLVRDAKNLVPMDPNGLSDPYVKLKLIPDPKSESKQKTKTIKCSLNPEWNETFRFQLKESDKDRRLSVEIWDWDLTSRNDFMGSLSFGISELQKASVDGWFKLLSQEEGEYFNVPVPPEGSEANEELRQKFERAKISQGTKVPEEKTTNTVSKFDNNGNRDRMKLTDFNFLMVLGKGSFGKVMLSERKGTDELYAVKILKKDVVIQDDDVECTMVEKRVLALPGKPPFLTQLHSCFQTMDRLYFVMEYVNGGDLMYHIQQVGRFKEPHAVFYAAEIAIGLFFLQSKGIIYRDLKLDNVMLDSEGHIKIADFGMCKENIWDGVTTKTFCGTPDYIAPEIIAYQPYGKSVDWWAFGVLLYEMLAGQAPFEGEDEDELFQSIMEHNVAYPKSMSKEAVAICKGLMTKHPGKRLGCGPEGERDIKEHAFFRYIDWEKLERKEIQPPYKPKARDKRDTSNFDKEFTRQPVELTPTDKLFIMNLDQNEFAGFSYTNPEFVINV
Sequence of PKCβII (P05771 1-673 isoform P05771-2): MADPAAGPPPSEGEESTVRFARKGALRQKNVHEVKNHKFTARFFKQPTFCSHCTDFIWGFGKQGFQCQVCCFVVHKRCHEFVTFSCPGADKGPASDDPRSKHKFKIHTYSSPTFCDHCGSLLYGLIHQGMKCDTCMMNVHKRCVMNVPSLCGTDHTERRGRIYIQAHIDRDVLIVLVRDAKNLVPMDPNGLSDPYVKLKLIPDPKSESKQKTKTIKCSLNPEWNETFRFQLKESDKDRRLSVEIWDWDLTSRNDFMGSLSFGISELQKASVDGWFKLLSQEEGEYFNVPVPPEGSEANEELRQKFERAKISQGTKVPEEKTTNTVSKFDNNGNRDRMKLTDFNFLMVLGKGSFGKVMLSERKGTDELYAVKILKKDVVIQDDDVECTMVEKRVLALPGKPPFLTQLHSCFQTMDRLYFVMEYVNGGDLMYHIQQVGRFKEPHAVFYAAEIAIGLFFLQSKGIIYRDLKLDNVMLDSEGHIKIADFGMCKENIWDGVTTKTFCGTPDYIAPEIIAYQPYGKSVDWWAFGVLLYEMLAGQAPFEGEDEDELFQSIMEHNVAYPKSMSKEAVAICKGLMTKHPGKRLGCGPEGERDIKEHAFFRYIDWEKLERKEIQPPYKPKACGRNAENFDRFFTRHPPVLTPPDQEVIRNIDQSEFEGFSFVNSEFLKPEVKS

SMILES: O=c1[nH]c2ccccc2n1C1CCN(Cc2ccc(-c3nc4cc5nc[nH]c5cc4nc3-c3ccccc3)cc2)CC1 [Akti-1/2]
FoxO1/O3a phosphorylation at T24/T32 [1]: inhibits | phosphorylation of Akt and its substrates [1]: completely inhibited

SMILES: O=C(NCCCNc1nc(Nc2cccc(NC(=O)N3CCCC3)c2)ncc1I)c1cccs1 [BX-795]
phosphorylation of Akt T308 [2]: blocked

SMILES: COc1ccc2c(c1OC)N=C(NC(=O)c1cccnc1)N1CCN=C21 [PIK-90]
phosphorylation of 4EBP1 at T36/45 [3]: did not reduce | phosphorylation of Akt T308 [2]: blocked | phosphorylation of Akt and its substrates [1]: completely inhibited

IC50 [4]: > 10 µM | activity against PKC-beta [5]: no activity | IC50 [6]: > 10 µM | IC50 [7]: > 10 µM
SMILES: CC(C)n1nc(-c2cccc(C(=O)NC3=NCCS3)c2)c2c(N)ncnc21 [PP30]

SMILES: CC(C)n1nc(-c2cc3cc(O)ccc3[nH]2)c2c(N)ncnc21 [PP242]
reduction of total protein synthesis [8]: about 30% | phosphorylation of Akt T308 [2]: no effect | phosphorylation of Akt at S473 and T308 in fat and liver ([9]; PP242 20 mg/kg IP, insulin): completely inhibit | phosphorylation of Akt in skeletal muscle ([9]; PP242 20 mg/kg IP, insulin): only partially able to inhibit | S6 phosphorylation, all tissues examined [9]: fully inhibited | phosphorylation of 4EBP1 on T36/45 and S65, all tissues examined [9]: effective at blocking | T308-P on S473A Akt [10]: not inhibited

SMILES: CO[C@H]1C[C@@H]2CC[C@@H](C)[C@@](O)(O2)C(=O)C(=O)N2CCCC[C@H]2C(=O)O[C@H]([C@H](C)C[C@@H]2CC[C@@H](O)[C@H](OC)C2)CC(=O)[C@H](C)/C=C(\C)[C@@H](O)[C@@H](OC)C(=O)[C@H](C)C[C@H](C)/C=C/C=C/C=C/1C [rapamycin]
cap-dependent translation (renilla/firefly ratio) [11]: did not have a statistically significant effect | blocking cell proliferation of SIN1−/− MEFs [12]: less effective at blocking cell proliferation than PP242 | reduction of total protein synthesis [8]: does not have a significant effect | phosphorylation of Akt at S473 and T308, all tissues examined ([9]; acute rapamycin 5 mg/kg IP, insulin): activated | S6 phosphorylation, all tissues examined [9]: fully inhibited | phosphorylation of 4EBP1 on T36/45 and S65, all tissues examined [9]: did not block 4EBP1 phosphorylation as completely as PP242 | Akt S473-P [13]: inhibited | Akt T308-P [13]: reduced | proliferation of primary MEFs [14]: inhibited growth to the same extent | insulin-stimulated release of 4EBP1 from eIF4E (retention on m7GTP beads) [15]: partial inhibition
